Laboratory results taken from patent publication US9012678B2, “Processes for the preparation of fesoterodine” (Cadila Healthcare Limited, priority 2010, dated 2015).

Assay: Stability study for Fesoterodine Fumarate (description, water by KF, related substances by HPLC on storage)
Type: physicochemical
Description: As used herein, the term “stable fesoterodine fumarate” fesoterodine fumarate containing any individual impurities less than 0.15% after exposure to a relative humidity of 60% at 25° for a period of at least three months or after exposure to a relative humidity of 75% at 40° for a period of at least three months
2) High Performance Liquid Chromatography (HPLC) Method for Determination of Impurity X in Fesoterodine Fumarate of formula (1)
• Equipment: Shimadzu LC2010C HPLC system equipped with a wavelength UV-VIS detector or equivalent. • Column: Inertsil ODS-3 (250 mm×4.6 mm, 5 μm), Make: GL Sciences Part No: 5020-01732 • Flow rate: 1.2 mL/minute • Column oven temp: 30° C. • Wavelength: 220 nm • Injection volume: 10 μL • Run time: 60 minutes • Diluent: Premixed buffer and acetonitrile in the volume ratio of 75:25. Preparation of Buffer:
Transfer 1 mL orthophosphoric acid in 1000 mL volumetric flask containing about 500 mL of water and make up the volume with water. Filter through 0.2 μm membrane filter paper.
Weigh accurately and transfer about 25 mg of sample of Fesoterodine Fumarate or Fesoterodine Fumarate (technical) into a 50 mL volumetric flask. Add 5 mL tetrahydrofuran, sonicate to dissolve and make up the volume with diluent. Make fresh two preparations at the time of injection.
Inject sample solutions containing the chromatogram upto the end of gradient. Determine the area of each impurity using suitable integrator.

[1] = 2 Months 40° C. ± 2° C./RH 75% ± 5%, PSD: D(90) = 10 microns
[2] = 2 Months 40° C. ± 2° C./RH 75% ± 5%, PSD: D(90) = 270 microns
[3] = 3 Months 2 to 8° C., PSD: D(90) = 10 microns
[4] = 3 Months 2 to 8° C., PSD: D(90) = 270 microns
[5] = 3 Months 25° C. ± 2° C./RH 60% ± 5%, PSD: D(90) = 10 microns
[6] = 3 Months 25° C. ± 2° C./RH 60% ± 5%, PSD: D(90) = 270 microns
[7] = 3 Months 40° C. ± 2° C./RH 75% ± 5%, PSD: D(90) = 10 microns
[8] = 3 Months 40° C. ± 2° C./RH 75% ± 5%, PSD: D(90) = 270 microns
[9] = Initial, PSD: D(90) = 10 microns
[10] = Initial, PSD: D(90) = 270 microns

With CC(C)C(=O)Oc1ccc(CO)cc1[C@H](CCN(C(C)C)C(C)C)c1ccccc1.O=C(O)/C=C/C(=O)O [Fesoterodine Fumarate, isobutyric acid 2-[(R)-3-diisopropylammonium-1-phenylpropyl)-4-(hydroxy-methyl)phenyl ester hydrogen fumarate] the “Water by KF” value (2 Months 25° C. ± 2° C./RH, PSD: D(90) = 10 microns) was 0.15 % w/w, the Description [1] was “White” and the “Related substance (by HPLC) i) Diol” value [1] was 0.07 % w/w. The “Related substance (by HPLC) ii) Diester” value [1] was “BQL”, the “Related substance (by HPLC) iii) Oxidized (RRT 1.37)” value [1] was 0.27 % w/w and the “Related substance (by HPLC) iv) Any individual impurities” value [1] was 0.04 % w/w. For the same molecule, the “Related substance (by HPLC) v) Total impurities” value [1] was 0.49 % w/w, the “Water by KF” value [1] was 0.12 % w/w and the Description [2] was “White”. It also gave a Related substance i) Diol [2] of 0.5%, a Related substance ii) Diester [2] of 0.05% and a Related substance iii) Oxidized (RRT 1.37) [2] of 0.05%. For the same molecule, the Related substance iv) Any individual impurities [2] was 0.07%, the Related substance v) Total impurities [2] was 0.22% and the “Water by KF” value [2] was 0.2 % w/w. For the same molecule, the Description [3] was “White”, the “Related substance (by HPLC) i) Diol” value [3] was 0.06 % w/w and the “Related substance (by HPLC) ii) Diester” value [3] was 0.03 % w/w. For the same molecule, the “Related substance (by HPLC) iii) Oxidized (RRT 1.37)” value [3] was 0.08 % w/w, the “Related substance (by HPLC) iv) Any individual impurities” value [3] was 0.03 % w/w and the “Related substance (by HPLC) v) Total impurities” value [3] was 0.21 % w/w. For the same molecule, the “Water by KF” value [3] was 0.16 % w/w, the Description [4] was “White” and the Related substance i) Diol [4] was 0.06%. For the same molecule, the “Related substance ii) Diester” value [4] was “BQL”, the “Related substance iii) Oxidized (RRT 1.37)” value [4] was “BQL” and the “Related substance iv) Any individual impurities” value [4] was “BQL”. For the same molecule, the Related substance v) Total impurities [4] was 0.06%, the “Water by KF” value [4] was 0.16 % w/w and the Description [5] was “White”. The “Related substance (by HPLC) i) Diol” value [5] was 0.09 % w/w, the “Related substance (by HPLC) ii) Diester” value [5] was “BQL” and the “Related substance (by HPLC) iii) Oxidized (RRT 1.37)” value [5] was 0.19 % w/w. For the same molecule, the “Related substance (by HPLC) iv) Any individual impurities” value [5] was 0.02 % w/w, the “Related substance (by HPLC) v) Total impurities” value [5] was 0.26 % w/w and the “Water by KF” value [5] was 0.16 % w/w. For the same molecule, the Description [6] was “White”, the Related substance i) Diol [6] was 0.06% and the “Related substance ii) Diester” value [6] was “BQL”. For the same molecule, the “Related substance iii) Oxidized (RRT 1.37)” value [6] was “BQL”, the “Related substance iv) Any individual impurities” value [6] was “BQL” and the Related substance v) Total impurities [6] was 0.06%. The “Water by KF” value [6] was 0.16 % w/w, the Description [7] was “White” and the “Related substance (by HPLC) i) Diol” value [7] was 0.07 % w/w. The “Related substance (by HPLC) ii) Diester” value [7] was “BQL”, the “Related substance (by HPLC) iii) Oxidized (RRT 1.37)” value [7] was 0.29 % w/w and the “Related substance (by HPLC) iv) Any individual impurities” value [7] was 0.04 % w/w. The “Related substance (by HPLC) v) Total impurities” value [7] was 0.49 % w/w, the “Water by KF” value [7] was 0.12 % w/w and the Description [8] was “White”. It also gave a Related substance i) Diol [8] of 0.6%, a Related substance ii) Diester [8] of 0.06% and a Related substance iii) Oxidized (RRT 1.37) [8] of 0.06%. For the same molecule, the Related substance iv) Any individual impurities [8] was 0.04%, the Related substance v) Total impurities [8] was 0.22% and the “Water by KF” value [8] was 0.12 % w/w. For the same molecule, the Description [9] was “White”, the “Related substance (by HPLC) i) Diol” value [9] was 0.06 % w/w and the “Related substance (by HPLC) ii) Diester” value [9] was 0.02 % w/w. The “Related substance (by HPLC) iii) Oxidized (RRT 1.37)” value [9] was 0.05 % w/w, the “Related substance (by HPLC) iv) Any individual impurities” value [9] was 0.02 % w/w and the “Related substance (by HPLC) v) Total impurities” value [9] was 0.15 % w/w. For the same molecule, the “Water by KF” value [9] was 0.2 % w/w, the Description [10] was “White” and the Related substance i) Diol [10] was 0.1%. For the same molecule, the Related substance ii) Diester [10] was 0.05%, the Related substance iii) Oxidized (RRT 1.37) [10] was 0.06% and the Related substance iv) Any individual impurities [10] was 0.02%. For the same molecule, the Related substance v) Total impurities [10] was 0.21%, the “Water by KF” value [10] was 0.33 % w/w and the “degradation of fesoterodine under stress conditions” value (fesoterodine fumarate with higher particle size) was “significantly slow down the degradation”.
